{
  "source": "patent US8114406B2",
  "about": "“Peptides and their utility in modulation of behavior of cells expressing α3β1 integrins” (The United States of America as represented by the …, priority 1999, dated 2012)",
  "key": {"HDME cells": {"test_system": "HDME cells", "experiment": "HDME cell spreading on coated substrates", "assay_type": "cell-based, human", "experimental": "Spreading was determined microscopically for cells with no additions, in the presence of 10 μM peptide 678, or in the presence of 30 μM of the control peptide 690. Results are presented as mean±SD, n=3. […] The percent spread cells was determined at 60 min.\nAdhesion assays of cells other than small cell lung carcinoma (SCLC)-Adhesion was measured on polystyrene or glass substrates coated with peptides or proteins as previously described (Guo et al., 1992). Peptides dissolved in PBS at 0.4 to 50 μM were incubated in polystyrene microliter plate wells overnight at 4° C. The wells were washed 3 times with distilled water. Adsorbed peptide was quantified using the BCA assay (Pierce Chemical) measuring absorbance at 570 and 630 nm as described by the supplier's protocol. The assay for adsorption was calibrated using purified peptide in solution as a standard. After blocking with 1% BSA in Dulbecco's PBS, adhesion assays were performed by adding cells suspended in DMEM (BAE cells) or medium 199 (human cells) containing 1 mg/ml BSA. Cell attachment and spreading was quantified microscopically."}, "HUVE cells": {"test_system": "HUVE cells", "experiment": "HUVE cell proliferation", "assay_type": "cell-based, human", "experimental": "Briefly, 100 μl of a 5×10^4 cell/ml suspension of BAE cells were seeded in triplicate into 96 well tissue culture plate in DMEM medium containing 1% FCS, 10 ng/ml of FGF2 and peptides at 1-40 μM concentrations. Cells were incubated for 72 h, and proliferation was measured using the Celltiter tetrazolium assay (Promega). […] Proliferation was determined at 72 h, and is presented as a percent of the control, mean±S.D., n=3 for experimental points and n=6 for control.\nCell proliferation was measured using the Cell-Titer colorimetric assay (Promega) as previously described (Vogel et al., 1993). A 100 μl volume of BAE cell suspension at 50,000 cells/ml in DMEM containing 1% FBS and supplemented with 10 ng/ml FGF2 was plated in triplicate in 96 well tissue culture plates either in the presence of peptides in solution or in wells that were pre-coated with 100 μl of the peptides at […] overnight and aspirated just before adding cells. Cells were grown for 72 hours at 37° C. in a humidified incubator with 5% CO2. HUVEC proliferation was measured by the same protocol but using medium 199 containing 5% FCS without heparin. HDME cell proliferation was measured in MCDB growth medium without heparin, VEGF, or FGF2."}},
  "note": "Where no end group is shown, it is not given here.",
  "data": [
    {"sequence": "FQGVLQNVRFVF [Peptide 678]", "values": [
      {"measurement": "percent spread HDME cells on immobilized substrate", "setting": "HDME cells; cells from sparse culture", "result": 28, "unit": "%"},
      {"measurement": "percent spread HDME cells on immobilized substrate", "setting": "HDME cells; cells harvested from a confluent monolayer", "result": "No spreading"},
      {"measurement": "HUVE cell proliferation, peptide in solution", "setting": "HUVE cells; added in solution", "result": "significantly inhibited"},
      {"measurement": "HUVE cell proliferation on immobilized peptide", "setting": "HUVE cells; immobilized on the substrate", "result": "increased their proliferation"}
    ]}
  ]
}
